Data as given in ChEMBL document CHEMBL1201862, “PubChem BioAssay data set” (2004).
Values belong to the molecule of their own block, whether it stands above or below them. Calls of active or inactive are those of the source.

Tests used:
[1] = molecular target: Peroxisome proliferator-activated receptor gamma/Nuclear receptor coactivator 1 (Homo sapiens, UniProt P37231); test: (§1) TR-FRET dose response biochemical High Throughput Screening assay for agonists of the steroid receptor coactivator 1 (SRC-1) recruitment by the peroxisome proliferator-activated receptor gamma (PPAR gamma): non-selective agonists. [Related pubchem assays (depositor defined):AID1300, AID1808, AID504735, AID631]; assay type: protein assay
Peroxisome proliferator-activated receptor gamma/Nuclear receptor coactivator 1, sequence (P37231 whole entry): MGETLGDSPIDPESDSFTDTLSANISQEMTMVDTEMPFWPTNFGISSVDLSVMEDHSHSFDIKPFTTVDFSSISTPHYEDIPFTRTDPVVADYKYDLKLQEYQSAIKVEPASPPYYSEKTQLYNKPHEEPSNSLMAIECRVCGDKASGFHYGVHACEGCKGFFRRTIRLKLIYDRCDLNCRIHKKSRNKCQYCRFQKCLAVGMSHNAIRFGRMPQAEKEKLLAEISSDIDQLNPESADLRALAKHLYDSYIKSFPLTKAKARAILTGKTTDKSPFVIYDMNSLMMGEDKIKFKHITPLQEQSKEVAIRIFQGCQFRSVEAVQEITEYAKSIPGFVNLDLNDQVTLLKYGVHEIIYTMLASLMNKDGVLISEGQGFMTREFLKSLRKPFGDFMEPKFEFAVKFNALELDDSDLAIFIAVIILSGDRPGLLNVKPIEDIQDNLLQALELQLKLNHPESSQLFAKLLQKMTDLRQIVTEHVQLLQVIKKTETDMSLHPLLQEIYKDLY
Peroxisome proliferator-activated receptor gamma/Nuclear receptor coactivator 1, sequence (Q15788 whole entry, further chain): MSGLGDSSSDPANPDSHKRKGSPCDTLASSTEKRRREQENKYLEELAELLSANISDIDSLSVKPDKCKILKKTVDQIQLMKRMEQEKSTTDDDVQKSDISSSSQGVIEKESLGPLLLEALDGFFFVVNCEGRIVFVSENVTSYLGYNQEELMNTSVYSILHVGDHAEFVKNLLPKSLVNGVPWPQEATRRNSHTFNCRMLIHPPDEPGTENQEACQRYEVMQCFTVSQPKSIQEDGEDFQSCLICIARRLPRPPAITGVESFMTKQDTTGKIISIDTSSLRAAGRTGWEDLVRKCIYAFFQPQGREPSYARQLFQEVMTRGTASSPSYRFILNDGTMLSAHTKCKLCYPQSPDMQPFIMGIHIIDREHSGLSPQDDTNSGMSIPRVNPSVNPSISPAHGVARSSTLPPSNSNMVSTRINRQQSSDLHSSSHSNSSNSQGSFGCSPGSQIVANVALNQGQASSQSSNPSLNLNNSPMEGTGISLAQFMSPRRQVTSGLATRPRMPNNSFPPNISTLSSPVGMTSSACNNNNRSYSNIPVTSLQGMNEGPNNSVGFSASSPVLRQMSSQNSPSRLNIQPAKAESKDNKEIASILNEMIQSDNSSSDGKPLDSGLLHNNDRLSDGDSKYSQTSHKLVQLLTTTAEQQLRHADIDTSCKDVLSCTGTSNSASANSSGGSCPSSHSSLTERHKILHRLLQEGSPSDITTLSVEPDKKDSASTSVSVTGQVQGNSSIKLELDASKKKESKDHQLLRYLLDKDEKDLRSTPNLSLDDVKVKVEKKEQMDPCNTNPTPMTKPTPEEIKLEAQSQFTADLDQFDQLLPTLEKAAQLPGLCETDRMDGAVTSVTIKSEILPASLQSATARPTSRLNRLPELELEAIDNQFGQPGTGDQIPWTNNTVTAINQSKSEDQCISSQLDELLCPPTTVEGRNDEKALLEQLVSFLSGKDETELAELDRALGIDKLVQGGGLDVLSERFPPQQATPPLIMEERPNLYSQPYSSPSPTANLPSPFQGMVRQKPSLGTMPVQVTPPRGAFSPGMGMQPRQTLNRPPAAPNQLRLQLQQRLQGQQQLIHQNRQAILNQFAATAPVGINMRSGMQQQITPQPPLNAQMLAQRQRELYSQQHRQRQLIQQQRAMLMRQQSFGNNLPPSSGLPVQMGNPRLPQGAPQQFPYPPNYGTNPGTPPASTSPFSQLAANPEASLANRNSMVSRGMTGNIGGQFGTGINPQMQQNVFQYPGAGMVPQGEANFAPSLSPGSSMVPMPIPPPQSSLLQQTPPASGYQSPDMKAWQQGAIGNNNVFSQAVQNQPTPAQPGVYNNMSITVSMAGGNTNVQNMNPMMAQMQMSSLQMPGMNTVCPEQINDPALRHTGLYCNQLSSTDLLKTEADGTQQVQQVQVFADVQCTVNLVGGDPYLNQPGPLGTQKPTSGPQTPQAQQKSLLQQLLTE

[2] = molecular target: Peroxisome proliferator-activated receptor gamma/Nuclear receptor coactivator 3 (Homo sapiens, UniProt P37231); test: as §1, with “3 (SRC-3)” for “1 (SRC-1)”, “assays: 1301 (Confirmation screen.), 1048 (Primary screen.)]” for “assays (depositor defined):AID1300, AID1808, AID504735, AID631]”; assay type: functional
Peroxisome proliferator-activated receptor gamma/Nuclear receptor coactivator 3, sequence (P37231 whole entry): as the sequence (P37231 whole entry) above
Peroxisome proliferator-activated receptor gamma/Nuclear receptor coactivator 3, sequence (Q9Y6Q9 whole entry, further chain): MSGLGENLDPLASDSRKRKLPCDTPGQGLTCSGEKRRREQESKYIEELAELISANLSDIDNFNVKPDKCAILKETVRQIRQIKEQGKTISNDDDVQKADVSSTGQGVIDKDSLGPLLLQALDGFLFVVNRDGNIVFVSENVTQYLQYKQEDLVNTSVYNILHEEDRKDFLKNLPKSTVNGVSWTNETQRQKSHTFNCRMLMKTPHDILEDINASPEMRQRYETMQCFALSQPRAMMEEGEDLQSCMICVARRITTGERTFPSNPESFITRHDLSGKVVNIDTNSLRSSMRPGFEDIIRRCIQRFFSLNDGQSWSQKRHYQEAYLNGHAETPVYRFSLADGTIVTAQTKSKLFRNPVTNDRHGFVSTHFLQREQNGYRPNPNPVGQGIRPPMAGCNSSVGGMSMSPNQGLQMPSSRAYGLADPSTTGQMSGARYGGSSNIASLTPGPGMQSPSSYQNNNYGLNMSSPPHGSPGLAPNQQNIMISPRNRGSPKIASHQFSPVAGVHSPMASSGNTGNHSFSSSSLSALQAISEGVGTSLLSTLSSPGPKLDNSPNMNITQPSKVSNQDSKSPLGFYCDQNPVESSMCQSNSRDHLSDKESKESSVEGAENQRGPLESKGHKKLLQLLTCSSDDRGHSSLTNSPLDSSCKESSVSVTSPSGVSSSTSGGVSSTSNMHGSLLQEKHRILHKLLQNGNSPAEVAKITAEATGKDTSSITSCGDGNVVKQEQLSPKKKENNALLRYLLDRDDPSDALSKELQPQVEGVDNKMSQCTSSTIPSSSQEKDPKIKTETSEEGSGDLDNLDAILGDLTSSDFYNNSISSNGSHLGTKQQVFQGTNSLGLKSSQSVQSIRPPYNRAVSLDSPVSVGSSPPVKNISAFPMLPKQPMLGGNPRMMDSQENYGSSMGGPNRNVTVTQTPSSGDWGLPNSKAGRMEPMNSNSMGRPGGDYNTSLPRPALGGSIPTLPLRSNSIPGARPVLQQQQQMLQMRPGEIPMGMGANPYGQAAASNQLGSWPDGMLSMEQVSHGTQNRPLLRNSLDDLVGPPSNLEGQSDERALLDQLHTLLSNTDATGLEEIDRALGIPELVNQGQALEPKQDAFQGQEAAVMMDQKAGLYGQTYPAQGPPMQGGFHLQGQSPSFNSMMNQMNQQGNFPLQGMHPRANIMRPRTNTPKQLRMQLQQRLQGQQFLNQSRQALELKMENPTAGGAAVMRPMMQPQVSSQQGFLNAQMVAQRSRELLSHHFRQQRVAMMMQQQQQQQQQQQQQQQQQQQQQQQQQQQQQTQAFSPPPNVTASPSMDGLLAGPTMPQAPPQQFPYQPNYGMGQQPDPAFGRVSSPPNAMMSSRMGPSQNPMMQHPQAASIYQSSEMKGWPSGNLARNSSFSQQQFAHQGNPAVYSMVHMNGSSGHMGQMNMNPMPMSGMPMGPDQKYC

[3] = molecular target: Peroxisome proliferator-activated receptor gamma/Nuclear receptor coactivator 2 (Homo sapiens, UniProt P37231); test: TR-FRET dose response biochemical High Throughput Screening assay for agonists of the steroid receptor coactivator 2 (SRC-2) recruitment by the peroxisome proliferator-activated receptor gamma (PPAR gamma): non-selective agonists. [Related pubchem assays: 1297, 1032 ]; assay type: functional
[4] = molecular target: T1, DNA repair and recombination protein RAD54-like (Homo sapiens, UniProt Q92698); test: RAD54 Holliday junction migration blockers – biochemical, fluorescence, cherry-picked samples, dose series, confirmation (AID 651657); assay type: functional
T1 sequence (Q92698 whole entry): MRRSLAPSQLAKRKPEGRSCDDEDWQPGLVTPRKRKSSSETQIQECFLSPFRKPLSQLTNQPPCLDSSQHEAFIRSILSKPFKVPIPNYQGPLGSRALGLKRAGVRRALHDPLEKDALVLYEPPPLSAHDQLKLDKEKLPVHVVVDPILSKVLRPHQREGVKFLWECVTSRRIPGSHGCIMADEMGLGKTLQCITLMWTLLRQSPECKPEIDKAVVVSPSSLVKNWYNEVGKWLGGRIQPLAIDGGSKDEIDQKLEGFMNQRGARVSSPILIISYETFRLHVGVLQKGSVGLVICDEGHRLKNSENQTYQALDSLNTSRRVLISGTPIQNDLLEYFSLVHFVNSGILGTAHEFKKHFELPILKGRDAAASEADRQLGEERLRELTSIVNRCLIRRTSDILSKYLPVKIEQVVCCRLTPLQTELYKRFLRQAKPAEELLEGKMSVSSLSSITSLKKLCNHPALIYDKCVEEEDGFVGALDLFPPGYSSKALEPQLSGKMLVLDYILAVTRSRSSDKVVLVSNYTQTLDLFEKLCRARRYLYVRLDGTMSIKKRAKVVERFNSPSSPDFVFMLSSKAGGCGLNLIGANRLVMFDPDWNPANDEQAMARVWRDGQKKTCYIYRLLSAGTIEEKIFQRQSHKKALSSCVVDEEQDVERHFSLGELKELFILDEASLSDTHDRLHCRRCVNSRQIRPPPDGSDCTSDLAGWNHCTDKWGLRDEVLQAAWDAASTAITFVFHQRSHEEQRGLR

[5] = molecular target: T2, DNA repair protein RAD52 homolog (Homo sapiens, UniProt P43351); assay type: functional, biochemical
T2 sequence (P43351 whole entry): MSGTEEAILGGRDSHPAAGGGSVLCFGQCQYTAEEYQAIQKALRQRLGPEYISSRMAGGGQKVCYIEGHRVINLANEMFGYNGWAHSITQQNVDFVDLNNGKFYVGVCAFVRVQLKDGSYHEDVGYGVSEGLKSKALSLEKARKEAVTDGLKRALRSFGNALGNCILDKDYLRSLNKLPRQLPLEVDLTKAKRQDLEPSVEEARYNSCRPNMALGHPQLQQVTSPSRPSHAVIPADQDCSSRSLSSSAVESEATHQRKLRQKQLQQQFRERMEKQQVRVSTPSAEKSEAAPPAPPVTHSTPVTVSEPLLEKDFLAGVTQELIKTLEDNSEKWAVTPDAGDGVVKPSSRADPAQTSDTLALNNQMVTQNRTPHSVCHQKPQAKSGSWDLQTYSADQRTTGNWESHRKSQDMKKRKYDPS

[6] = molecular target: DNA dC->dU-editing enzyme APOBEC-3G (Homo sapiens, UniProt Q9HC16); test: Dose Response confirmation of small molecule APOBEC3G DNA Deaminase Inhibitors via a fluorescence-based single-stranded DNA deaminase assay. [Related pubchem assays (depositor defined):AID493012, AID493028]; assay type: functional
DNA dC->dU-editing enzyme APOBEC-3G, sequence (Q9HC16 whole entry): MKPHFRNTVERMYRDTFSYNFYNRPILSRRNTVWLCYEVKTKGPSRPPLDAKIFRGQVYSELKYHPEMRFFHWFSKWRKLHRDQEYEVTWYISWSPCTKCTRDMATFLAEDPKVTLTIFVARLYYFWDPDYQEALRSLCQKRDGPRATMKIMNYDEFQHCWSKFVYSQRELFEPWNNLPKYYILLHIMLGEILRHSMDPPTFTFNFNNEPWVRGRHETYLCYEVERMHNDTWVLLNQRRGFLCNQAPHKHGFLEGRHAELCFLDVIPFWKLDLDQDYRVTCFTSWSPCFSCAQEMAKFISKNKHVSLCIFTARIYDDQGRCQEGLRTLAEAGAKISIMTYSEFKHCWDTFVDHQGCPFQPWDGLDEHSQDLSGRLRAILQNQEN

[7] = molecular target: T3, Short transient receptor potential channel 4 (Mus musculus, UniProt Q9QUQ5); test: calcium entry via TRPC4 opening agents – cell-based, HEK293 TRPC4/mu-opioid, Fluo-4 calcium, dose response (AID 434937); assay type: functional
T3 sequence (Q9QUQ5 whole entry): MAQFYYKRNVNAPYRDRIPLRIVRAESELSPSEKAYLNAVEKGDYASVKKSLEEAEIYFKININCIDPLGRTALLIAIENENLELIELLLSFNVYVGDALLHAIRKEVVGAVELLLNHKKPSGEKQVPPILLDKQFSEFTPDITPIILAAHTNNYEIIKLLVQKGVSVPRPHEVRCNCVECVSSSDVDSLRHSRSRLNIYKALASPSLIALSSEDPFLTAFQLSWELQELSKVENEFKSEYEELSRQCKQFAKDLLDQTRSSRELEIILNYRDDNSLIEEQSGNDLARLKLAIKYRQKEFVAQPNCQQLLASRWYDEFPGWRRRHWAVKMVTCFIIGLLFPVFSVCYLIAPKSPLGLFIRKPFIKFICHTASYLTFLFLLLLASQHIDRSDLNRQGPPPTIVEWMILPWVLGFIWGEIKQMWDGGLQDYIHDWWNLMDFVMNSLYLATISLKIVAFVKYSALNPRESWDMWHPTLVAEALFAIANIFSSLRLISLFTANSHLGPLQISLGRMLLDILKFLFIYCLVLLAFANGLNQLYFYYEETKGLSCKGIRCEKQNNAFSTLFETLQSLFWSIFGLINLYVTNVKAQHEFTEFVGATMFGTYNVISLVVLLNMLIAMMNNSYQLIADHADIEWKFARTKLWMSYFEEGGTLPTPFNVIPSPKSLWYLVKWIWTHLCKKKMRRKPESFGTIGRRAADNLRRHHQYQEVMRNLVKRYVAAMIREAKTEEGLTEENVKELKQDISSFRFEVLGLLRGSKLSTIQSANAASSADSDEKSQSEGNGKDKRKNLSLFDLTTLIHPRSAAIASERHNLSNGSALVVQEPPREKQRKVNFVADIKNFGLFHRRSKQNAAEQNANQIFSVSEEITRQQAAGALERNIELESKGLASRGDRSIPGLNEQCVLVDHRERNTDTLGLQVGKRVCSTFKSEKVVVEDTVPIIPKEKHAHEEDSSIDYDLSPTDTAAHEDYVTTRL

[8] = Trypanosoma cruzi growth suppression in host cells – NIH3T3 host cells, beta-gal luminescence, confirmation (AID 2044); assay type: functional, cell-based;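 also: intracellular parasites grown in NIH/3T3 mouse fibroblasts as host cells; luminescent beta-galactosidase reporter signal from transgenic T. cruzi replicating inside host cells; inhibitors lower the luminescence signal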
[9] = NIH3T3 cell viability loss – ATP luminescence, mouse fibroblasts, counter-screen, dose response (AID 2010); assay type: functional, cell-based; details: NIH3T3;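 also: cells exposed to compound for about 90 hours before reading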
[10] = molecular target: T4, Mannose-6-phosphate isomerase (Homo sapiens, UniProt P34949); test: MPI inhibition at elevated mannose 6-phosphate – biochemical, fluorescence intensity, high mannose 6-phosphate, primary screen (AID 1220)
T4 sequence (P34949 whole entry): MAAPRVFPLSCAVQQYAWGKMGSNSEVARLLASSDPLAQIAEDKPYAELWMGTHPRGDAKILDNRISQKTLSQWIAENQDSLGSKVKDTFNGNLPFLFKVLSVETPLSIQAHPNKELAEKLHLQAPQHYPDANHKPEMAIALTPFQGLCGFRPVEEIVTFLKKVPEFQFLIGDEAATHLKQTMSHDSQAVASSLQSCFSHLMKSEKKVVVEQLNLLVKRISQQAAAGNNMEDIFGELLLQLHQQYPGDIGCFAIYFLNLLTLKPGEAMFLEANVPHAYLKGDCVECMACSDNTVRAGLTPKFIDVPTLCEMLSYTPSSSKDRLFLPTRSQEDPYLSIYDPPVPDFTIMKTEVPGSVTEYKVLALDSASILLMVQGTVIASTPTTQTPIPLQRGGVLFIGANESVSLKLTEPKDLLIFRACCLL

[11] = viability of PTEN-deleted HCT116 cells – cell-based, HCT116 PTEN knockout, dose response (AID 1047); assay type: functional;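 also: HCT116 colon tumor cells with PTEN knocked out; cells exposed to compound for 60 hours before readout; potency for loss of cell viability measured by luminescence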
[12] = viability of HCT116 lacking mutant beta-catenin – cell-based, human colon tumor, dose response (AID 1045); assay type: functional;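 also: HCT116 colon tumor cells with beta catenin knocked out; cells exposed to compound for 60 hours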
[13] = molecular target: Glucose-6-phosphate 1-dehydrogenase (Homo sapiens, UniProt P11413); test: inhibition of Homo sapiens G6PD, dose series – biochemical, fluorescence, selectivity assay for P. falciparum G6PD inhibitor project, dose response (AID 504792); assay type: functional
Glucose-6-phosphate 1-dehydrogenase, sequence (P11413 whole entry): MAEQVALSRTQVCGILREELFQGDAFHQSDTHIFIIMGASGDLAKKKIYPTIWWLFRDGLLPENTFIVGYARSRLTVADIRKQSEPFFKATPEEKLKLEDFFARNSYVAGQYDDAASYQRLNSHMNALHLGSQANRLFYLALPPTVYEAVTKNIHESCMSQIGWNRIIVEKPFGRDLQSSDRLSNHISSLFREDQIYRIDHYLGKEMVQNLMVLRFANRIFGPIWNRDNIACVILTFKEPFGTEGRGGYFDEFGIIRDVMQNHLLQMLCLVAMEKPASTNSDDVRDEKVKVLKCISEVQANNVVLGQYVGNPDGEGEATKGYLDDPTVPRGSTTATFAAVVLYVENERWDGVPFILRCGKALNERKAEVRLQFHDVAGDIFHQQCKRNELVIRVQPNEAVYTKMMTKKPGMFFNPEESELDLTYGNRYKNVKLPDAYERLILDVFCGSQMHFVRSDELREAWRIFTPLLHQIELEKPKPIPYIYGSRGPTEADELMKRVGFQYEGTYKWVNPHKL

[14] = molecular target: Genome polyprotein (dengue virus type 2, UniProt P29990); test: flavivirus cap methylation enzyme inhibition – biochemical, confirmation dose response, primary screen (AID 588689); assay type: functional
[15] = molecular target: T3, Short transient receptor potential channel 4; test: block of DAMGO-driven TRPC4 calcium entry – cell-based, HEK293 TRPC4/mu-opioid, Fluo-4 calcium, dose response (AID 434942); assay type: functional;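 also: potency of inhibitors blocking the TRPC4 calcium response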

Compound: CCOc1ccc(C(=S)NC2CCCCC2)cc1OCC
- IC50 [6]: 55.7 µM (active)

Compound: Cc1nc([N+](=O)[O-])nn1C12CC3CC(CC(Br)(C3)C1)C2
- EC50 [8]: 0.105 µM (active)
- EC50 [9]: > 60 µM (not active)
- IC50 [10]: 26.3 µM (active)
- IC50 [6]: 49.6 µM (active)

Compound: CC1=CC(=NOC(=O)/C=C/c2ccccc2)C=C(C)C1=O
- EC50 [11]: 14 µM (active)
- EC50 [12]: 13.6 µM (active)
- IC50 [13]: > 80 µM (inactive)

Compound: CC(Nc1ccc(Br)cn1)c1cc(Cl)ccc1O (stereo not drawn)
- EC50 [1]: 6.3 µM (active)
- EC50 [2]: 3.26 µM (active)
- EC50 [3]: 4.73 µM (active)

Compound: Cc1cccc(N2CCN(Cc3ccoc3)CC2)c1C
- EC50 [15]: 0.668 µM (active)

Now from value to molecule:

- EC50 [1]: 446 µM (inactive)
- EC50 [2]: > 79.4 µM (not active)
- EC50 [3]: 29.8 µM (not active)
Compound: Cc1onc(-c2c(F)cccc2Cl)c1C(=O)Nc1nnc(-c2ccccc2)s1

- AC50 [4]: 10.3 µM (active)
- AC50 [5]: 10 µM (active)
Compound: CCN(CC)Cc1cc(Nc2ccnc3cc(Cl)ccc23)ccc1O

- EC50 [7]: 5.96 µM (active)
- AC50 [4]: 56.4 µM (active)
Compound: CN(C)CCNC(=O)c1c(NC(=O)c2ccccc2)sc2c1CCCC2

- IC50 [14]: 37 µM (active)
Compound: Cc1ccc(-c2csc3nc(SCC(=O)Nc4ccc(Cl)c(C(=O)O)c4)nc(O)c23)cc1

- EC50 [1]: 28.5 µM (inactive)
- EC50 [2]: > 79.4 µM (not active)
- EC50 [3]: 19.7 µM (not active)
Compound: O=C(Nc1nc2c(s1)COc1ccccc1-2)c1cccs1
